{
  "source": "paper PMC12208134",
  "about": "“Structure-activity relationships of 1,5-dihydro-2H-benzo[b][1,4]diazepine-2,4(3H)-diones as inhibitors of Trypanosoma cruzi” (RSC medicinal chemistry, 2025)",
  "key": {"[1]": {"assay": "Human liver microsomal intrinsic clearance", "type": "in vitro ADME", "settings": "human liver microsomes"}, "[2]": {"assay": "Mouse liver microsomal intrinsic clearance", "type": "in vitro ADME", "settings": "mouse liver microsomes"}, "host Vero cell": {"test_system": "host Vero cell", "assay": "Vero host cell toxicity in the intracellular T. cruzi assay", "type": "cell-based", "set-up": "key to Max Effect (Vero): % inhibition; 0% = DMSO control, 100% = 16 μM nifurtimox control", "procedure,_shortened": "(§1)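 Silvio X10/7 trypomastigotes infected Vero cells overnight at MOI10; washed infected cells were exposed to compounds 96 h at 37°C in MEM/1% FCS. Hoechst-stained imaging scored percent infected cells (potency) and host-cell number (Vero toxicity), normalised to 16 μM nifurtimox and DMSO controls; four-parameter fit.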"}, "[3]": {"assay": "Kinetic aqueous solubility by CAD", "type": "physicochemical", "settings": "kinetic from dmso stock; kinetic, CAD; read-out: Aqueous solubility"}, "Tc-MetRS": {"target": "Tc-MetRS (Trypanosoma cruzi, UniProt Q4D6H2)", "sequence (Q4D6H2 entry or part of it)": "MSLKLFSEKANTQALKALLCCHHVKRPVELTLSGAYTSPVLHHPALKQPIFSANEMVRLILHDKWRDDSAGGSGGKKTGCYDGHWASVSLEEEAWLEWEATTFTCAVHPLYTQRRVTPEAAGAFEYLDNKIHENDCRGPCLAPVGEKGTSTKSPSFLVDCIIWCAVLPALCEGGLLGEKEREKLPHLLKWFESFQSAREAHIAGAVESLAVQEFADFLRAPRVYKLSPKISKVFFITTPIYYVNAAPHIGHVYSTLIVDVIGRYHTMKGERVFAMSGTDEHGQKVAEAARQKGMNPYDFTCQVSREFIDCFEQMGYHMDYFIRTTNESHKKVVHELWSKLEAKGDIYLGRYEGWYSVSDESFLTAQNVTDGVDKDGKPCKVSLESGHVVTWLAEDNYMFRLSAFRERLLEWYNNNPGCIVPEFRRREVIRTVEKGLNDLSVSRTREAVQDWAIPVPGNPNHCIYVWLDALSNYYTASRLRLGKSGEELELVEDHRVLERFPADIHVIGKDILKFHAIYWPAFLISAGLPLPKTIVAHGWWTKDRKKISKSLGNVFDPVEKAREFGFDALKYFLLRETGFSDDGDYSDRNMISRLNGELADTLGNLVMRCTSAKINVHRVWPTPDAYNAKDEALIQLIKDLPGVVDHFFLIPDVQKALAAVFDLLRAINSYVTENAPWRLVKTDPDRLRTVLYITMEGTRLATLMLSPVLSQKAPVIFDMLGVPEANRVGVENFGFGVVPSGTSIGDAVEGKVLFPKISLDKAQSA", "assay": "T. cruzi aminoacyl tRNA synthetase enzyme assay (TcMetRS)", "type": "biochemical", "protocol": "T. cruzi aminoacyl tRNA synthetase enzyme assays\nAssays were run for 2 hours."}, "T. cruzi proteasome": {"target": "T. cruzi proteasome (Trypanosoma cruzi, UniProt V5BU39)", "protocol": "T. cruzi proteasome enzyme assay\nThe pIC50 of compound 1 was measured in a T. cruzi proteasome assay (N = 2 experimental replicates, each with n = 3 technical replicates) as previously described, using a recombinantly expressed Δβ1Δβ2 mutant proteasome (measuring chymotrypsin site activity only). ^4"}, "[4]": {"test_system": "intracellular T. cruzi amastigotes", "assay": "Rate-of-kill assay against intracellular amastigotes", "type": "cell-based, Trypanosoma cruzi", "protocol": "T. cruzi intracellular potency and rate-of-kill assay (high content imaging) ^1\nSilvio X10/7 T. cruzi trypomastigotes were incubated at 37°C 5% CO2 with 1.6×10^7 Vero cells overnight at MOI10 in MEM media supplemented with 10% foetal calf serum (FCS). Extracellular parasites were removed by aspirating cell culture supernatant, and washing Vero monolayer with 10 ml serum-free MEM three times. Vero cells were then harvested by trypsinization and dispensed at 2×10^3 per well (50 μl in MEM/ 1% FCS) into 384 well plates pre-stamped with compounds in DMSO using automated washer/ dispenser EL406 and liquid handling software (Biotek). Plates were then incubated at 37°C in 5% CO2 for 96 h. For rate-of-kill determination, plates were incubated for 24h, 48h, 72h and 96h.\nPlates were subsequently fixed with 4% formaldehyde for 20 min, permeabilised and stained with 5 μgml^-1 Hoechst 33342/ 0.1% Triton/ PBS Thimerosal 20 min. […] Images were analysed with an algorithm generated in Columbus (PerkinElmer) to segment Vero cell nuclei, Vero cell cytoplasm and parasite nuclei/ kinetoplasts, reporting number of amastigotes per Vero cell, percent infected Vero cells and total number of Vero cells. Compound potencies against T. cruzi parasites were calculated in IDBS Activitybase using percent infected Vero cells and Vero toxicity curves generated using number of host cells. […]"}, "Tc-CYP51": {"target": "Tc-CYP51 (Trypanosoma cruzi, UniProt Q7Z1V1)", "sequence (Q7Z1V1 whole entry)": "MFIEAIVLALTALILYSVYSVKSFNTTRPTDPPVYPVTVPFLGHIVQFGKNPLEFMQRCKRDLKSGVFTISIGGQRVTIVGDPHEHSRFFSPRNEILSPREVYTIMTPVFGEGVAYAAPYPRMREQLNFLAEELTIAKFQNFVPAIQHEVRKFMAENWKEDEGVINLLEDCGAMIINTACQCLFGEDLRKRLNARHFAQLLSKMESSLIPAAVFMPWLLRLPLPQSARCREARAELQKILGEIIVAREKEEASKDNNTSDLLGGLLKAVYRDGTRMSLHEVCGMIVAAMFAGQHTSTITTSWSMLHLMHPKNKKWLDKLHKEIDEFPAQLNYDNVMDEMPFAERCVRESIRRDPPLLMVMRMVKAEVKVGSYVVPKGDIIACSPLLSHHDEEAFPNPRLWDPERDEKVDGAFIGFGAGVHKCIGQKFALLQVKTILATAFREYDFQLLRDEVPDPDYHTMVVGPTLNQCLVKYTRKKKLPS", "assay": "T. cruzi sterol 14α-demethylase (CYP51) enzyme assay", "type": "biochemical", "protocol": "T. cruzi sterol 14α-demethylase (CYP51) enzyme assay\nPotency against T. cruzi CYP51 was determined using a previously described fluorescence assay. Average potency for compound 1 was determined with three experimental replicates. Potencies in Fig.3 are from single experimental replicates. ^5"}, "T. cruzi epimastigotes": {"test_system": "T. cruzi epimastigotes", "assay": "T. cruzi oxygen consumption assay", "type": "cell-based", "settings": "Trypanosoma cruzi, read-out: T. cruzi oxygen consumption pIC50 (converted)", "protocol": "T. cruzi oxygen consumption assay\nOxygen consumption was measured using T. cruzi epimastigotes and the MitoXpress Xtra Oxygen Consumption Assay (Agilent) as previously reported. ^6"}, "[5]": {"assay": "ChromLogD pH7.4 (chromatographic hydrophobicity index), PFI, LLE", "text": "[23] Alongside PFI, LLE (ligand lipophilic efficiency, T. cruzi pIC50 - ChromLogDpH7.4) was also monitored to identify changes where the impact on potency was not driven by increasing lipophilicity."}, "Tc-HisRS": {"target": "Tc-HisRS (Trypanosoma cruzi, UniProt Q4DA54)", "sequence (Q4DA54 entry or part of it)": "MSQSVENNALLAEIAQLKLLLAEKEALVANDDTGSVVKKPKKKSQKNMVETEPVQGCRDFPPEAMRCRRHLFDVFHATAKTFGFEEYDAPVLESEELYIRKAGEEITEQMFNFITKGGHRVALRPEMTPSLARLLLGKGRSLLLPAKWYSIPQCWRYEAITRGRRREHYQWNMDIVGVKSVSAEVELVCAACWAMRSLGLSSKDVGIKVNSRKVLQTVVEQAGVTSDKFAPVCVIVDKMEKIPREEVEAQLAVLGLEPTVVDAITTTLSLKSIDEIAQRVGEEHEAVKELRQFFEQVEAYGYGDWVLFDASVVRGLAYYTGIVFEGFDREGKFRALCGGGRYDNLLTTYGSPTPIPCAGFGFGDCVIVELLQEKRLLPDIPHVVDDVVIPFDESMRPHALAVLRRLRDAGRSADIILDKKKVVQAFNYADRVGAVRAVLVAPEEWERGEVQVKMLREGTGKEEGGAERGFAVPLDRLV", "assay": "biochemical", "description": "TcHisRS assay wells contained TcHisRS assay buffer (30 mM Tris; pH 8, 140 mM NaCl, 40 mM MgCl2, 30 mM KCl, 0.01% (v/v) Brij and 1 mM DTT) plus 50 nM TcHisRS, 8 μM ATP, 5 μM L-histidine and 1 U/mL pyrophosphatase. Assays were run for 2 hours."}, "[6]": {"test_system": "intracellular T. cruzi amastigotes", "assay": "T. cruzi intracellular potency assay (high content imaging)", "type": "cell-based, Trypanosoma cruzi", "set-up": "key to Max Effect (T. cruzi): % inhibition; 0% = DMSO control, 100% = 16 μM nifurtimox control", "procedure,_shortened": "as §1"}, "T. cruzi trypomastigotes": {"test_system": "T. cruzi trypomastigotes", "assay": "T. cruzi trypomastigote assay", "type": "cell-based, Trypanosoma cruzi", "protocol": "T. cruzi trypomastigote assay\nTrypomastigote assays were carried out with T. cruzi Silvio X10/7 trypomastigotes using the protocol previously described. ^1"}},
  "note": "“And” between values parts separate entries of the source, which are not always exact repeats. Equal values may be shown once. Read-outs that look alike come from different tables or passages of the source.",
  "data": [
    {"compound": "Cc1ccc(NC(=O)NC2C(=O)Nc3ccccc3N(c3ccccc3)C2=O)cc1", "note": "(centres unmarked) [Compound 1, 1-(2,4-dioxo-1-phenyl-2,3,4,5-tetrahydro-1H-benzo[b][1,4]diazepin-3-yl)-3-(p-tolyl)urea]", "values": [
      {"measurement": "HLM CLi", "setting": "[1]", "result": "<0.4", "unit": "mL/min/g"},
      {"measurement": "MLM CLi", "setting": "[2]", "result": 0.8, "unit": "mL/min/g"},
      {"measurement": "EC50", "setting": "host Vero cell; Chlorocebus sabaeus, Vero, individual replicate", "result": "> 50.1", "unit": "µM"},
      {"measurement": "IC50", "setting": "host Vero cell; Chlorocebus sabaeus, host Vero cell, read-out: Vero pIC50 (converted)", "result": "> 50.1", "unit": "µM"},
      {"measurement": "Max Effect (Vero)", "setting": "host Vero cell; individual replicate", "result": "13 and 1.41 and 11 and 15 and 2.25 and -0.282"},
      {"measurement": "solubility", "setting": "[3]", "result": 35, "unit": "µM"},
      {"measurement": "IC50", "setting": "Tc-MetRS", "result": "> 100", "unit": "µM"},
      {"measurement": "Tc Proteasome Hill", "setting": "T. cruzi proteasome; individual replicate", "result": "1.1 and 0.9"},
      {"measurement": "Tc Proteasome Max Effect", "setting": "T. cruzi proteasome; individual replicate", "result": "62 and 68"},
      {"measurement": "Tc Proteasome pIC50", "setting": "T. cruzi proteasome; individual replicate", "result": "4.0 and 4.2"},
      {"measurement": "Tc-proteasome pIC50", "setting": "T. cruzi proteasome; Δβ1Δβ2 mutant proteasome, chymotrypsin site", "result": 4.1},
      {"measurement": "Rate-of-Kill: cidal activity within", "setting": "[4]", "result": "Cidal activity within 96 hours ^f"},
      {"measurement": "IC50", "setting": "Tc-CYP51; average of three experimental replicates, read-out: Tc-CYP51 pIC50 (converted)", "result": 15.8, "unit": "µM"},
      {"measurement": "Tc CYP51 Hill", "setting": "Tc-CYP51; individual replicate", "result": "1.3 and 1.1 and 1.4"},
      {"measurement": "Tc CYP51 Max Effect", "setting": "Tc-CYP51; individual replicate", "result": "83 and 84"},
      {"measurement": "Emax", "setting": "Tc-CYP51; individual replicate, read-out: Tc CYP51 Max Effect", "result": 85, "unit": "%"},
      {"measurement": "IC50", "setting": "Tc-CYP51; individual replicate, read-out: Tc CYP51 pIC50 (converted)", "result": "6.31 µM and 25.1 µM"},
      {"measurement": "fold more potent against the parasites than against Tc-CYP51", "setting": "Tc-CYP51; urea series", "result": 10, "unit": "fold"},
      {"measurement": "IC50", "setting": "T. cruzi epimastigotes", "result": "> 50.1", "unit": "µM"},
      {"measurement": "PFI", "setting": "[5]; ChromLogDpH7.4 + no. aromatic rings", "result": 7.6},
      {"measurement": "chromatographic logD", "setting": "[5]; pH 7.4", "result": 4.6},
      {"measurement": "IC50", "setting": "Tc-HisRS", "result": "> 100", "unit": "µM"},
      {"measurement": "Emax", "setting": "[6]; Trypanosoma cruzi, individual replicate, read-out: Max Effect (T. cruzi)", "result": 84, "unit": "%"},
      {"measurement": "IC50", "setting": "[6]; Trypanosoma cruzi, intracellular amastigotes in Vero cells, 96 h, mean of N ≥ 3, read-out: T. cruzi pIC50 (converted)", "result": 1, "unit": "µM"},
      {"measurement": "Hill slope (T. cruzi)", "setting": "[6]; individual replicate", "result": "2.7 and 4.5 and 6.2 and 2.8 and 1.2 and 2.0 and 4.2"},
      {"measurement": "Max Effect (T. cruzi)", "setting": "[6]; individual replicate", "result": "87 and 88 and 90 and 83"},
      {"measurement": "pEC50 (T. cruzi)", "setting": "[6]; individual replicate", "result": "5.8 and 6.2 and 6.1 and 6.0"},
      {"measurement": "Emax", "setting": "T. cruzi trypomastigotes; Trypanosoma cruzi, individual replicate, read-out: Tc-Trypo Max Effect", "result": 77, "unit": "%"},
      {"measurement": "IC50", "setting": "T. cruzi trypomastigotes; Trypanosoma cruzi, read-out: T. cruzi trypomastigote pIC50 (converted)", "result": 0.251, "unit": "µM"},
      {"measurement": "Tc-Trypo Hill", "setting": "T. cruzi trypomastigotes; individual replicate", "result": "0.9 and 1.4 and 1.2 and 1.3"},
      {"measurement": "Tc-Trypo Max Effect", "setting": "T. cruzi trypomastigotes; individual replicate", "result": 79},
      {"measurement": "Tc-Trypo pEC50", "setting": "T. cruzi trypomastigotes; individual replicate", "result": "7.2 and 7.0 and 6.3 and 6.4"}
    ]}
  ]
}
